Tests used:
[1] = system: CD34+ cells from mobilized PB; assay: Long term 10-day ex vivo culture of CD34+ cells from mobilized PB; type: cell-based, human
Experimental: The following biological assays were used to assess the effect of the compounds of the invention on hematopoietic stem cell expansion. Culture medium: The culture medium used consisted of serum-free medium supplemented with the following recombinant cytokines: interleukin-6, thrombopoietin, Flt-3 ligand, and stem cell factor, each at a final concentration of 100 ng/ml, in the presence of vehicle (DMSO), positive control (SR1), or compound of the invention or a combination of compounds. Cell Culture: CD34+ cell purity of initial harvests was higher than 90%, as determined by flow cytometry. The CD34+CD45RA− subpopulation reached purity levels higher than 70%. Cells were plated at 40,000 cells/ml and incubated for 7 to 12-days at 37° C. in 5% CO2. For long term cultures, 200,000 CD34+ cells/ml from mobilized PB were plated with serum free media supplemented with interleukin-6, thrombopoietin, Flt3 ligand, and stem cell factor, each at a final concentration of 100 ng/ml, in the presence of vehicle (DMSO), positive control, or a compound of the invention at 500 nM. After a 10-day ex vivo culture Compound 1 (Table 1) promoted more than 7-fold expansion of MNCs, more than 5-fold increase in CD34+ cells over input values (day 0), and almost 4-fold increase over the values determined for vehicle. After 10 days of ex vivo culture, Compound 1-treated cells retained a high level of CD34 expression (65.8±5.5%) compared to cells cultured with vehicle (DMSO) (22.8±0.9%). Moreover, only Compound 1-treated cells retained the highest expression of CD34+CD45RA− population (24.8±0.9%) compared to that of vehicle (4.7±0.4%). The numbers of CD34+CD45RA− cultured with Compound 1 increased by almost 3-fold compared to that of vehicle and 7-fold more than that of input. Finally, the compounds of the invention were assayed in a dose-response format (concentrations ranging from 1 nM to 5000 nM) to determine the effective concentration that produced a 50% increase in the number of CD34+CD45RA− cells compared to vehicle condition.

[2] = system: CD34+ mobilized peripheral blood (mPB) cells; assay: Ex vivo expansion of mobilized peripheral blood-derived CD34+ and CD34+CD45RA− cells (FIG. 5A); type: cell-based, human
From the text: FIG. 5: A) Compound 1 expands mobilized peripheral blood-derived CD34+ and CD34+CD45RA− cell populations ex vivo. […] This observation was enhanced with the co-treatment with SR1.
[…]. The level of expansion is the same whether cultures are initiated with Compound 1, SR1, Compound 1+SR1, or control DMSO. […] […].

CD34+ cord blood cells = assay: FACS analysis of differentiation of CD34+ cord blood cells (FIG. 4B-4D); details: FACS / cytological analysis

Question: How did the “expansion of MNCs” value ([1]; 10-day ex vivo culture, 500 nM) turn out when `COC(=O)c1ccc2c(c1)[nH]c1ncnc(NCCCN3CCCCC3)c12` [Compound 1, Methyl 4-((3-(piperidin-1-yl)propyl)amino)-9H-pyrimido[4,5-b]indole-7-carboxylate] was run?
Answer: more than 7 fold

Question: And the “increase in CD34+ cells over input values (day 0)” value ([1]; 10-day ex vivo culture, 500 nM)?
Answer: more than 5 fold

Question: What about the “increase in CD34+ cells over the values determined for vehicle” value ([1]; 10-day ex vivo culture, 500 nM) of the same compound?
Answer: ~4 fold

Question: And the “numbers of CD34+CD45RA− compared to input” value ([1]; 10-day ex vivo culture, 500 nM)?
Answer: 7 fold

Question: What about the “numbers of CD34+CD45RA− compared to vehicle” value ([1]; 10-day ex vivo culture, 500 nM) of the same compound?
Answer: ~3 fold

Question: And the “expression of CD34+CD45RA− population” value ([1]; after 10 days of ex vivo culture, vehicle 4.7±0.4%)?
Answer: 24.8±0.9%

Question: What about the “level of CD34 expression” value ([1]; after 10 days of ex vivo culture, vehicle 22.8±0.9%) of the same compound?
Answer: 65.8±5.5%

Question: What about the “expansion of CD34+CD45RA− cell subpopulation” value ([2]; 12-days culture) of the same compound?
Answer: about ten fold

Question: What about the “total cell count increase above the input” value ([2]; 12-days culture) of the same compound?
Answer: about 20 fold

Question: And the “CD34+ population vs DMSO” value ([2]; FIG. 5A)?
Answer: more than twice

Question: And the “CD34+CD45RA− population vs DMSO” value ([2]; FIG. 5A)?
Answer: more than three times

Question: What about the “total cell count vs DMSO” value ([2]; FIG. 5A) of the same compound?
Answer: the same

Question: What about the “differentiation of CD34+ cord blood cells” value (CD34+ cord blood cells) of the same compound?
Answer: reduces differentiation

Reference: US9409906B2, “Pyrimido[4,5-B]indole derivatives and use thereof in the expansion of hematopoietic stem cells” (UNIVERSITÉ DE MONTRÉAL, priority 2012, dated 2016)
